Assay results reported in US10023587B2, “Oxabicycloheptanes and oxabicycloheptenes, their preparation and use” (LIXTE BIOTECHNOLOGY, INC., priority 2007, dated 2018).
“Also recorded” adds a separate entry of the source. Where two headings read alike, the source gives them in different places.

How the values were obtained:
GBM cell line U373 [1] = test: Inhibition of growth of GBM cell line U373 by single agents (cell counts); assay type: cell-based, human; conditions: for Inhibition of growth of cell line U373 (in words): single agent; for IC50: U373, exposure for 7 days, estimated from graphic plots (FIG. 1), read-out: concentration that inhibited brain tumor cell proliferation by 50% (IC50)
Excerpt: From graphic plots of the glioblastoma multiforme GBM cell line U373 (available from the National Institute of Neurological Disorders and Stroke Molecular Pathogenesis Unit, Building 10, Room 5 D37, National Institutes of Health, 900 Rockville Pike, Bethesda, Md., 20892) as a function of exposure to different doses of drug for 7 days, the concentration of each compound that inhibited brain tumor cell proliferation by 50% (IC50) was estimated.
To identify novel therapeutic targets for the treatment of glioblastoma multiforme (GBM), cantharidin analogues were evaluated for their ability to inhibit growth of glioblastoma multiforme cells. Specifically, GBM cell line U373 was used in evaluations.
(§1) The total number of cells is counted in the triplicate cultures at each dose and in controls after 7 days and the average number of cells and the standard deviation is determined.
(§2) The amount of inhibition of GBM cell growth is expressed as the proportion of the number of cells in the experimental dishes compared to the number of cells in control dishes containing only the drug vehicle and culture medium. The average percent of control is plotted and bracketed by one standard deviation calculated from the triplicate measurements.
For all cell culture experiments, cells are allowed to grow in the presence or absence of different concentrations of drug or in the presence of the vehicle used to dissolve the drug, PBS for compound 100 and DMSO for compound 102. Cell counts are done in triplicate on day 3 and day 7 and inhibition of growth is expressed as a percentage of the number of cells present in the experimental well divided by the number of cells in a control well.

[2] = system: kidney cancer cell line, UMRC; test: Inhibition of growth of kidney cancer cell line UMRC; assay type: cell-based; conditions: single agent, 7 days (FIG. 3)
Excerpt: (§3) To determine whether there is tumor type specificity of the inhibitory properties of analogues of Compound 100, retinoic acid and Trichostatin A, we measured their inhibitory effects as single agents against the GBM line U373, a breast cancer line, MCF-7 (obtained from ATCC) and a kidney cancer cell line, UMRC (UMRC obtained by Dr. Zhuang, NINDS, NIH from the Intramural Research Support Program, SAIC, National Cancer Institute, Frederick Cancer Research and Development Center).

[3] = system: breast cancer line, MCF-7; test: Inhibition of growth of breast cancer cell line MCF-7; assay type: cell-based; conditions: single agent, 7 days (FIG. 5)
Excerpt: as §3

GBM cell line U373 [4] = test: cells; assay type: cell-based, human
Protocol: as §1, with “To observe the effects Compound 100 in combination with retinoic acids, Compound 100 was combined with all-trans retinoic acid. […] The” for “The”
as §2
Synergism (potentiation) of the inhibitory activity of two drugs in combination is said to be present when the percent survival in the presence of two drugs is less than the product of the percent survivals of the two drugs used alone at the same doses in the combination.

Stability at acid pH = assay type: physicochemical
[5] = Solubility (water, lipid); assay type: physicochemical; conditions: own compounds
[6] = known cantharidin homologs, stated as known; cited from earlier work

| Structure (SMILES) | melting point | Inhibition of growth of cell line U373 (in words) (GBM cell line U373 [1]; 7 days) | Sensitivity of UMRC compared with U373 (in words) [2] | Inhibition of growth of MCF-7 (in words) [3] | further results |
| --- | --- | --- | --- | --- | --- |
| COC(=O)C1C(C(=O)N2CCN(C)CC2)[C@@H]2CC[C@H]1O2 (stereo partly drawn) | 105 to 107 °C | – | – | – | – |
| O=C(O)C1C(C(=O)N2CCNCC2)[C@@H]2CC[C@H]1O2 (stereo in doubt) [Compound 101, 3-(Piperazine-1-carbonyl)-7-oxa-bicyclo[2.2.1]heptane-2-carboxylic acid] | > 240 °C (dec.) | less activity | – | – | – |
| O=C(O)C1C(C(=O)N2CCN(Cc3ccccc3)CC2)[C@@H]2CC[C@H]1O2 (stereo in doubt) [Compound 103, 3-(4-Benzylpiperazine-1-carbonyl)-7-oxa-bicyclo[2.2.1]heptane-2-carboxylic acid] | > 190 °C (dec.) | less activity | – | – | – |
| COc1ccc(CCN2CCC(NC(=O)C3C(C(=O)O)[C@H]4CC[C@@H]3O4)CC2)cc1 (stereo in doubt) [Compound 104, 3-(1-[2-(4-Methoxy-phenyl)-ethyl]piperidin-4-ylcarbamoyl)-7-oxa-bicyclo[2.2.1]-heptane-2-carboxylic acid] | 140 to 142 °C | less activity | – | – | – |
| CC1=C(/C=C/C(C)=C/C=C/C(C)=C/C(=O)O)C(C)(C)CCC1 [ATRA, all-trans retinoic acid] | – | – | less sensitive than the brain tumor line, U373 | an inhibition in growth | Inhibition of growth of MCF-7 (in words) ([3]; listed as all-trans retinoic acid): as sensitive as U373; activity at 25 µM (GBM cell line U373 [4]; Homo sapiens, U373 MG, 168 h, read-out: Percent of Control, Observed): 77% |
| CC1=C(/C=C/C(C)=C/C=C/C(C)=C\C(=O)O)C(C)(C)CCC1 [Cis-RA, 13-cis Retinoic Acid] | – | – | – | – | Percent of Control, Observed (GBM cell line U373 [4]; Cis-RA 50 μM, U373 (Table 4)): 93.3 +/− 2.2% of Control |
| CCN1CCN(C(=O)C2C(C(=O)O)[C@H]3CC[C@@H]2O3)CC1 (stereo partly drawn) [Compound 105, 1-(3-Exocarboxy-7-oxabicyclo[2.2.1]heptane-2-exocarbonyl)-4-ethylpiperazine] | – | Increasing dosages demonstrate a greater inhibition of growth | – | – | Inhibitory value against U373, comparison of the two compounds (GBM cell line U373 [1]; 10 μM, seven days (FIG. 8)): identical inhibitory values; Inhibition of growth of cell line U373 (in words) (GBM cell line U373 [1]; 7 days, listed as compound 105): highly active; Inhibition of growth of cell line U373 (in words) (GBM cell line U373 [1]; after three days (FIG. 6)): Increasing dosages demonstrate a greater inhibition of growth; Stability at acid pH (in words) (Stability at acid pH): stable at acid pH; Water solubility (in words) [5]: water soluble |
| CN(C)CCNC(=O)C1C(C(=O)O)[C@H]2CC[C@@H]1O2 (stereo partly drawn) [Compound 106] | 48 to 50 °C | less activity | – | – | – |
| CC(/C=C/C(=O)NO)=C\[C@@H](C)C(=O)c1ccc(N(C)C)cc1 [TSA, Trichostatin A] | – | – | less sensitive than the brain tumor line, U373 | an inhibition in growth | Inhibition of growth of MCF-7 (in words) ([3]; listed as Trichostatin A): as sensitive as U373; Percent of Control, Observed (GBM cell line U373 [4]; TSA 0.033 μM (0.01 μg/ml), U373 (Table 4)): 71.6 +/− 0.4% of Control |
| C[C@@]12C(=O)OC(=O)[C@]1(C)[C@H]1CC[C@@H]2O1 [cantharidin] | – | – | – | – | Water solubility (in words) [6]: not |
| O=C1SC(=O)[C@H]2[C@@H]1[C@@H]1CC[C@H]2O1 [endothal thioanhydride, reference compound] | – | Increasing dosages demonstrate a greater inhibition of growth; also recorded: greatest inhibition of growth | less sensitive than the brain tumor line, U373 | as sensitive as U373 | IC50 (GBM cell line U373 [1]): 2.5 µM |
| O=C(O)[C@@H]1[C@H](C(=O)O)[C@H]2CC[C@@H]1O2 [endothal] | – | Increasing dosages demonstrate a greater inhibition of growth; also recorded: modest inhibition of growth | less sensitive than the brain tumor line, U373 | as sensitive as U373; also recorded: an inhibition in growth | IC50 (GBM cell line U373 [1]): 15 µM; Percent of Control, Observed (GBM cell line U373 [4]; END 10 uM, U373, 7 days (Table 3)): 65% |
| O=C1OC(=O)[C@H]2[C@@H]1[C@H]1CC[C@H]2O1 [norcantharidin] | – | Increasing dosages demonstrate a greater inhibition of growth | less sensitive than the brain tumor line, U373 | as sensitive as U373 | IC50 (GBM cell line U373 [1]): 12 µM; Water solubility (in words) [6]: not |
